The values that follow are results of earlier work, collected in US9452178B1, “Acne formulations, treatments, and pressure sensitive patches for delivery of acne formulations” (SatisPharma, LLC, priority 2014, dated 2016).

Molecules are shown by their SMILES.

The conditions of this data set: complex with polyvinylpyrrolidone; publication by Rhein et al.

As for `O=C(O)c1ccccc1O` [salicylic acid], the “permeation through the epidermis” value is listed as “prevents its permeation through the epidermis”.
